This is an account of results in US6994981B2, “Modulators of paraptosis and related methods” (The Buck Institute, priority 2002, dated 2006).

“Also recorded” adds a separate entry of the source.

The test system of series [1] is striatal, cortical, and hippocampal neurons. The series can be described thus: SP-induced cell death in primary striatal, cortical and hippocampal neurons, trypan blue viability and staining. Format: cell-based, rat. In a few lines: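 Rat E17 striatal, cortical or hippocampal neurons, used day 1–7, received SP (0.1 nM–100 μM) 24–48 h after seeding in 2.5% horse serum; co-treatments given with SP, kinase inhibitors 30 min before. Viability measured by trypan blue staining of the total cell population.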

Series [2] has as its system fibroblasts. Briefly: SP toxicity to fibroblasts. Format: cell-based. To be noted: extracellular SP.
The subject of series [3] is 293T cells transfected with NK1R. The series can be described thus: SP-induced, NK1R-mediated cell death in 293T cells transfected with NK1R, trypan blue and staining. Format: cell-based, human. The protocol:
(§1) Human embryonic kidney 293T cells were grown as described in Example I. Transient transfection was performed using Superfect (Qiagen) as described by the manufacturer. Briefly, 2×10^5 cells/well were seeded into 35 mm wells 16 hr prior to transfection. Superfect:DNA complexes were added at a 5 μl:2 μg ratio for 3 hr; then the medium was replaced and after 24 hr SP was added. At 24–48 hr after addition of SP cell death was quantified as follows: the media containing floating cells were collected and centrifuged 10 min at 2000×g, the pellet was resuspended in PBS/trypan blue and the cells were counted using a hematocytometer. When other compounds were used, they were added at the same time as SP: zVAD.fmk or BAF was added at 50 μM and obtained from Enzyme System Products, Livermore, Calif.
Briefly, the method entailed cloning the full-length (1.2 kb) NK1R cDNA (Genbank Accession No. M31477) by RT-PCR from adult rat hippocampal RNA into the XbaI/EcoRI sites of the vector pcDNA3.1 (Invitrogen), using the following oligonucleotides: forward 5′[…] 3′ (SEQ ID NO:2); reverse 5′[…] 3′ (SEQ ID NO:3).
Cells were stained according to the manufacturer's instructions (Clontech). Briefly, cellswere washed with binding buffer and incubated with FITC-Annexin-V or EGFPAnnexin-V for 5–10 min and fixed with 4% paraformaldehyde.
Cells were fixed 10 min with 4% paraformaldehyde and stained according to the manufacturer's instructions (Promega).
The protein kinase inhibitors were added 30 min before SP exposure at the following concentrations: 10 μM Rp-8-Br-cAMPS (adenosin 3′,5′-cyclic monophosphorothioate, 8-bromo-, Rp-isomer, sodium salt) which is a PKA inhibitor; 50 nM Calphostin C, which is a PKC inhibitor; 10 μM PD 98059 which is a MAPKK (MEK) inhibitor. These compounds were obtained from Calbiochem. Viability was quantified by trypan blue staining of the total cell population.

Series [4] concerns 293T human embryonic kidney cells. The series can be described thus: SP toxicity to untransfected 293T cells. Type of series: cell-based. To be noted: no endogenous NK1R, up to millimolar SP. Here is the method: as §1
The test system of series [5] is ERK-1/2. Briefly: Western blot of ERK-1/2 phosphorylation in 293T cells expressing NK1R. Format: cell-based, human. To be noted: 293T cells expressing the wild type NK1R, but not NK1Rd342. Here is the method: For the transfected 293T cells, cells were washed with cold PBS after incubation with SP the time indicate and homogenized on lysis buffer (150 mM NaCl, 1% Triton X-100, 50 mM Tris HCL pH8.0). Cytoplasmic extracts were collected after 10 min centrifugation at 14,000 rcf. Total amount of protein was quantified by Bradford assay and electrophoresis of equal amounts of total protein was performed on SDS-polyacrylamide gels. Separated proteins were transferred to polyvinylidene fluoride membranes at 4° C. for Western blot analysis. Membranes were probed with a 1:1000 dilution of anti-ERK-1/2 or anti phospho-ERK-1/2 (BioSource). The blots were incubated in a horseradish peroxidase coupled secondary antibody for 1 h followed by enhanced chemiluminescence detection of the proteins with […]™ ECL detection (Amersham, Arlington Heights, Ill.). For striatal neurons, total ERK-1/2 was immunoprecipitated using superparamagnetic Microbeads conjugated to protein A, following manufacture's instructions (MACS, Miltenyi Biotec), and then developed by Western blot against either anti-ERK-1/2 or anti phospho-ERK-1/2.
(In general: Immunoblotting shows a protein as a band on a membrane.)

In series [6] the test system is total cellular cAMP. The series can be described thus: cAMP quantification in 293T cells overexpressing NK1R. Type of series: cell-based, human. To be noted: compared with 10 μM forskolin. The protocol:
Total cellular cAMP was measured using the BiotrakBIOTRAK™ non-acetylation enzymeimmunoassay system (Amersham Phramacia Biotech), following manufacturer's instructions. Forskolin (Sigma) was added at 10 μM.

Series [7] deals with cytochrome c release. To be noted: cell-free system of apoptosis; cited from earlier work.

Take “SP: eleven amino acid neurotransmitter of the tachykinin family, ligand of NK1R”: the “sensitivity of neurons to SP” value in series [1] (48 hours after exposure) was “sensitive to micromolar concentrations”; in series [1] (seven days after exposure, SP added only once) it was “sensitive to nanomolar concentrations”. Also, in series [1] (L or D isomer), the “effect of SP isomer on neuronal cell death” value was “induced cell death”. The toxicity to fibroblasts result in series [2] was “resistant to micromolar concentrations; also recorded: not toxic”. For the same substance, in series [3], the “sensitivity of NK1R-transfected 293T cells to SP” value is “sensitive to SP at nanomolar concentrations”. Besides, in series [4], the “sensitivity of 293T cells to SP-induced cell death” value was “resistant”. Also, the “activation of ERK-1/2 by SP” value in series [5] is given as “activation of ERK-1/2”. The “production of cAMP in response to SP” value in series [6] was “Neither the wild type nor the mutant NK1Rd342 overexpressed in 293T cells generated a significant amount of cAMP”. Further, the cytochrome c release result in series [7] was “can induce cytochrome c release”.
